Results taken from patent publication US10004222B2, “Small molecule ice recrystallization inhibitors and methods of use thereof” (THE UNIVERSITY OF OTTAWA, priority 2012, dated 2018).
Several values for one entry are separate records, joined by “and”; a condition that tells them apart may be missing. Equal values may be shown once. Entries after “also recorded” stand apart in the source; their conditions may differ.

Columns and labels:
[1] = splat cooling ice recrystallization inhibition (IRI) assay
Procedure: In this assay, the area of ice crystals are measured after a 30 minute annealing time at −6.4° C. and compared to a positive control for ice recrystallization resulting in a quantitative measurement of the mean ice grain size. For a positive control, a phosphate buffered saline (PBS) solution was utilized. All samples were normalized to the PBS positive control. The ice recrystallization inhibition activity of the carbohydrate-based non-ionic surfactants n-octyl-β-D-glucopyranoside (compound 3) and n-octyl-β-D-galactopyranoside (compound 4) is shown in FIG. 1.
In this assay, the area of ice crystals are measured after a 30 minute annealing time at −6.4° C. and compared to a positive control for ice recrystallization resulting in a quantitative measurement of the mean ice grain size. For a positive control, a PBS solution was utilized. All samples were normalized to the PBS positive control.
N-aryl-D-gluconamides (3a), (2a), (4a), and (1b) are a class of low molecular weight carbohydrate-based compounds. The ice recrystallization inhibition activity of (3a), (2a), (4a), and (1b) was assessed using a “splat cooling” assay. In this assay, the area of ice crystals are measured after a 30 minutes annealing time at −6.4° C. and compared to a positive control for ice recrystallization resulting in a quantitative measurement of the mean ice grain size. For a positive control, PBS was utilized. All samples were normalized to the PBS positive control.

[2] = tested on: CD34+ cells (hematopoietic stem cells); test: colony forming unit (CFU) assay after cryopreservation of umbilical cord blood; format: cell-based, human; details: for combined results of the CFU assays vs control: UCB units 26, 27, 28 combined, FIG. 41; for BFU-E / CFU-G / CFU-GEMM / CFU-GM / CFU-M / Total Number of Colonies: post-thaw, 14 days in Methocult
Procedure: (§1) Aliquots of LC (50,000 CD34^+ cells) are added to 2.0 mL cryovials. For each experiment, four cryovials are prepared (two for post-thaw viability analysis using flow cytometry and two for functionality analysis using the colony forming unit assay). Cryovials are kept on ice until placement in −80° C. freezer. Cryovials are centrifuged at 400 g and 10° C. for 5 minutes to pellet cells. After centrifugation, the time taken until placement in −80° C. freezer should not exceed 10 minutes. Supernatant is removed by aspiration or by decanting, but preferably by aspiration. Plasma (volume depends on desired cryosolution concentration) is added and cells are suspended by pipetting. Pre-made cryosolutions (see Cryosolutions) are added (volume depends on desired cryosolution concentration) and mixed by pipetting. Cryovials are placed in a Mr. Frosty® rate controlled freezing container which is then placed in a −80° C. freezer for 24 hours. By placing the cryovials in the freezing container, their contents undergo a cooling rate of about −1° C. per minute. After 24 hours, the cryovials are transferred to a liquid nitrogen dewar for storage until thawed for analysis.
(§2) Cryosolutions are prepared in distilled autoclaved water supplemented with 0.9% saline and 5% dextran for cryopreservation experiments and diluted with different volumes of plasma in cryovials depending on desired concentration of ice recrystallization inhibitor. N-(4-chlorophenyl)-D-gluconamide (4a) and N-(2-fluorophenyl)-D-gluconamide (2a) are prepared at 25 mM and N-(4-methoxyphenyl)-D-gluconamide (3a) and N-(2,6-difluorobenzyl)-D-gluconamide (1b) are prepared at 55 mM. 100, 50, 33 or 20 μL of 25 mM N-(4-chlorophenyl)-D-gluconamide (4a) or N-(2-fluorophenyl)-D-gluconamide (2a) are added to cryovials containing 50,000 CD34^+ cells suspended in 0, 50, 67, or 80 μL of plasma, respectively, for a final IRI concentration of 25, 12.5, 8 or 5 mM, respectively. 100, 50, 33 or 20 μL of 55 mM N-(4-methoxyphenyl)-D-gluconamide (3a) or N-(2,6-difluorobenzyl)-D-gluconamide (1b) are added to cryovials containing 50,000 CD34^+ cells suspended in 0, 50, 67, or 80 μL of plasma, respectively, for a final IRI concentration of […], 18 or 11 mM, respectively.
Cryovials are thawed in a 37° C. water bath and diluted with 900 μL of IMDM (10% FBS, 1% penicillin/streptomycin). Cryovials are placed on ice until washed. Samples are mixed by pipetting and 80 μL is transferred to a 15 mL Falcon tube. 5 mL of Iscove's Modified Dulbecco's Medium (IMDM) supplemented with 10% fetal bovine serum (FBS) is added and this mixture is centrifuged at 1100 rpm for six minutes to yield a cell pellet and a supernatant. The supernatant is removed by aspiration and the cell pellet is resuspended in 1 mL IMDM (2% FBS) to form a suspension. The suspension is mixed by pipetting. 150 μL of this cell suspension is added to 3 mL Methocult™ media and plating is performed in accordance with manufacturer's instruction. The suspension with Methocult™ media is mixed adequately by vortexing for 20 seconds. The contents are allowed to settle and bubbles are allowed to subside before plating (approximately 5-10 minutes). Using a 3 mL syringe and 16 gauge blunt needles, 2.5 mL of the cell suspension in Methocult™ is taken from the bottom. 1 mL of this 2.5 mL is added to two 5 mL cell culture dishes. The dishes are swirled to ensure cells in Methocult™ medium coat the entire bottom of the dish. A third 5 mL dish is prepared to contain distilled autoclaved water without a lid. These three 5 mL dishes are placed in a 100 mL plate; two 5 mL dishes contain 1 mL of cell suspension in Methocult™ medium with the lid on and one containing distilled autoclaved water with the lid off. The lid is placed on the 100 mL plate and stored in a 37° C. incubator (5% CO2) for two weeks.

[3] = tested on: Tf1-α cells; test: cryopreservation of Tf1-α cells, viability/apoptosis by flow cytometry (7-AAD, Annexin V); format: cell-based; details: for Apoptosis (%) / Cell Viability (%): 55 mM aryl-aldonamide, post-thaw; for cell viability: stored at −196° C. for 48 hours
Procedure: Tf1-α cells were cultured to a final concentration of 2-3×10^6 cells/mL. Three million cells were transferred into cryovials and media were removed by aspiration after centrifugation at 1000 rpm for five minutes. 100 μL of RPMI media (10% FBS) supplemented with the cryopreservative of interest was added to the cryovial and vortexed. The cryovials were cooled at a rate of −1° C./min for 24 hours to −80° C. before being transferred to a liquid nitrogen dewar for storage until analysis.
Cryovials were thawed under fast thaw conditions (submerged in 37° C. water bath). The cells were then diluted to a concentration of 3×10^6 cells/mL with 1× Annexin V Binding Buffer and a cell count was obtained by hemacytometer (to obtain cell recovery). A 400 μL aliquot was transferred to a flow cytommetry tube. 10 μL of each Annexin V FITC (for apoptosis) and 7-AAD (for viability) dyes were added, the tube was vortexed and allowed to incubate in the dark for 15 minutes. The solution was diluted to 1 mL with 1× Annexin V Binding Buffer, vortexed and analyzed by flow cytommetry. […] With 2% DMSO, cell viability reached about 45%, and with 10% DMSO, cell viability reached around 78%.

[4] = tested on: CD34+ cells (hematopoietic stem cells); test: post-thaw viability of CD34+ cells of cryopreserved umbilical cord blood, flow cytometry; format: cell-based, human
Procedure: Whole umbilical cord blood (UCB) should be stored at room temperature (15-25° C.) and processed within 48 hrs of collection. UCB is removed from collection bag and spilt in equal parts into 50 mL Falcon tubes. No more than 25 mL of UCB should be added per Falcon tube. UCB is diluted with 6% hetastarch (Hespan) to obtain a final concentration of 1% hetastarch and incubated for 10 minutes at room temperature. The tubes are then centrifuged at 50 g at 10° C. for 15-20 minutes, depending on volume. The centrifuge should not brake to stop. For total volumes of 30 mL, 15-17 minute centrifugation is utilized and for total volumes of 35 mL, 17-20 minute centrifugation is utilized. The supernatant and buffy coat (plasma and leukocytes) are removed carefully (not collecting RBCs) from the tubes and collected into new 50 mL Falcon tubes. These tubes are centrifuged at 400 g and 10° C. for 10 mins to pellet cells. The centrifuge brake can now be utilized. Plasma is removed and kept in new 50 mL Falcon tubes on ice. The cell pellets resuspended and combined in plasma to a total volume of 20 mL to generate leukocyte concentrate (LC). The LC is kept on ice for the duration of its use. Total mononuclear (CD45^+) and CD34^+ (hematopoetic stem cells) cell concentrations and viability are determined by flow cytometry (see Flow Cytometry procedure below). Aliquots of LC (50,000 CD34^+ cells) are utilized for cryopreservation experiments (see Cryopreservation Experiments procedure below).
as §1, §2
Total mononuclear cell (CD45+) and progenitor cell (CD34+) viability is assessed by flow cytometry using International Society of Hematotherapy and Graft Engineering (ISHAGE) guidelines (J. Hematother. Stem Cell Res. 1996, 5, 213-226). […]

[5] = 22 mM in PBS, 30 min annealing at −6.4° C.
[6] = 10% DMSO (⅕ dilution with plasma), UCB Unit 27
[7] = 10% DMSO (⅕ dilution with plasma), UCB Unit 28

CCCCCCCCO[C@@H]1OC(CO)[C@H](O)[C@H](O)C1O (stereo partly drawn) [compound 4, n-octyl-β-D-galactopyranoside]
ice recrystallization inhibition activity ([1]; 11 mM in PBS): significantly better than 22 mM D-galactose | ice recrystallization inhibition activity [1, 5]: significantly better than 22 mM D-galactose; also recorded: potent | ice recrystallization inhibition activity ([1]; 44 mM in PBS): significantly better than 22 mM D-galactose

O=C(NCc1cc(F)cc(F)c1)[C@H](O)[C@@H](O)[C@H](O)[C@H](O)CO [(2b), N-(3,5-difluorobenzyl)-D-gluconamide]
combined results of the CFU assays vs control [2]: did not perform particularly well

O=C(Nc1ccccc1)[C@H](O)[C@@H](O)[C@H](O)[C@H](O)CO [(1a), phenyl-aldonamide]
Apoptosis (%) ([3]; 0% DMSO): 0% | Cell Viability (%) ([3]; 0% DMSO): 0.07% | Apoptosis (%) ([3]; 2% DMSO): 0.9% | Cell Viability (%) ([3]; 2% DMSO): 34.71% | Apoptosis (%) ([3]; 10% DMSO): 4.22% | Cell Viability (%) ([3]; 10% DMSO): 68.82%

COc1ccccc1NC(=O)[C@H](O)[C@@H](O)[C@H](O)[C@H](O)CO [(7a), N-(2-methoxyphenyl)-D-gluconamide]
combined results of the CFU assays vs control [2]: did not perform particularly well

O=C(Nc1ccccc1Cl)[C@H](O)[C@@H](O)[C@H](O)[C@H](O)CO [(5a), N-(2-chlorophenyl)-D-gluconamide]
BFU-E ([2]; 5 mM IRI, 10% DMSO): 19.2 | CFU-G ([2]; 5 mM IRI, 10% DMSO): 5.0 | CFU-GEMM ([2]; 5 mM IRI, 10% DMSO): 2.3 | CFU-GM ([2]; 5 mM IRI, 10% DMSO): 5.2 | CFU-M ([2]; 5 mM IRI, 10% DMSO): 1.0 | Total Number of Colonies ([2]; 5 mM IRI, 10% DMSO): 32.7 | BFU-E ([2]; 8 mM IRI, 10% DMSO): 18.0 | CFU-G ([2]; 8 mM IRI, 10% DMSO): 5.0 | CFU-GEMM ([2]; 8 mM IRI, 10% DMSO): 2.0 | CFU-GM ([2]; 8 mM IRI, 10% DMSO): 4.0 | CFU-M ([2]; 8 mM IRI, 10% DMSO): 2.0 | Total Number of Colonies ([2]; 8 mM IRI, 10% DMSO): 31.0 | BFU-E ([2]; 12.5 mM IRI, 10% DMSO): 27.0 | CFU-G ([2]; 12.5 mM IRI, 10% DMSO): 8.0 | CFU-GEMM ([2]; 12.5 mM IRI, 10% DMSO): 4.5 | CFU-GM ([2]; 12.5 mM IRI, 10% DMSO): 6.5 | CFU-M ([2]; 12.5 mM IRI, 10% DMSO): 1.5 | Total Number of Colonies ([2]; 12.5 mM IRI, 10% DMSO): 47.5 | fold increase in functionality relative to the control ([2]; 12.5 mM vs DMSO only): 1.5 fold | BFU-E ([2]; 25 mM IRI, 10% DMSO): 20.5 | CFU-G ([2]; 25 mM IRI, 10% DMSO): 7.0 | CFU-GEMM ([2]; 25 mM IRI, 10% DMSO): 1.0 | CFU-GM ([2]; 25 mM IRI, 10% DMSO): 11.0 | CFU-M ([2]; 25 mM IRI, 10% DMSO): 2.5 | Total Number of Colonies ([2]; 25 mM IRI, 10% DMSO): 42.0 | combined results of the CFU assays vs control [2]: did not perform particularly well

OC[C@@H](O)[C@H](O)[C@H](O)[C@@H](O)CO [D-dulcitol, reference compound]
ice recrystallization inhibition activity ([1]; concentration not given): decreased activity relative to the pyranose forms

CCCCCCCCO[C@@H]1OC(CO)[C@@H](O)[C@H](O)C1O (stereo partly drawn) [compound 3, n-octyl-β-D-glucopyranoside]
ice recrystallization inhibition activity [1, 5]: identical to that of D-glucose | ice recrystallization inhibition activity ([1]; 44 mM in PBS): still identical to that of the 22 mM D-glucose

OC[C@@H](O)[C@@H](O)[C@H](O)[C@@H](O)CO [D-sorbitol, reference compound]
ice recrystallization inhibition activity ([1]; concentration not given): decreased activity relative to the pyranose forms

O=C(Nc1ccc(F)cc1)[C@H](O)[C@@H](O)[C@H](O)[C@H](O)CO [(6a), N-(4-Fluorophenyl)-D-gluconamide]
combined results of the CFU assays vs control [2]: did not perform particularly well

C[S+](C)[O-] [DMSO, Dimethyl sulfoxide, reference compound]
cell viability ([3]; 2% DMSO alone): about 45% | cell viability ([3]; 10% DMSO alone): around 78% | Post-Thaw Viab. ([4]; 10% DMSO (no plasma)): 83% | Post-Thaw Viab. [4, 6]: 88% | Post-Thaw Viab. [4, 7]: 87% | Tot. No. Colonies ([2]; 10% DMSO (no plasma)): 47 and 34 | Tot. No. Colonies [2, 6]: 56 and 35 | Tot. No. Colonies [2, 7]: 36 | BFU-E ([2]; 10% DMSO only, IRI None): 15.6 | CFU-G ([2]; 10% DMSO only, IRI None): 5.1 | CFU-GEMM ([2]; 10% DMSO only, IRI None): 2.8 | CFU-GM ([2]; 10% DMSO only, IRI None): 6.8 | CFU-M ([2]; 10% DMSO only, IRI None): 0.7 | Total Number of Colonies ([2]; 10% DMSO only, IRI None): 31 | Tot. No. Colonies, AVG ([2]; average of control solutions): 28
